We go through five compounds from publication PMC12311729, “Probing the Mechanism of L‑DOPA 2,3-Dioxygenase Using Synthetic Derivatives of 3,4-Dihydroxyhydrocinnamic Acid” (ACS Omega, 2025).

On the set-up of data set [1]: method as in Biochemistry 2021, 60, 32, 2492–2507. The conditions noted are these: similarly 6-substituted dopamine; ref Biochemistry 2021, 60, 32, 2492–2507; cited from earlier work.
Data set [2] can be described thus: Cyclic voltammetry (redox potentials on a GCE). The note with it: for (E p)a Oxidation / (E p)c Reduction / E1/2 / Ipa/Ipc / ΔE p: GCE (d = 2 mm); for E1/2 (mV) at pH 7.4 relative to L-DOPA x 100: percentage of the value for L-DOPA. The data set is classed as physicochemical. From the text: Reduction and oxidation potentials were experimentally performed by cyclic voltammetry (CV) at biological pH 7.4, as previously described. All samples were run on a CH Instruments 600E Potentiostat in a one-compartment cell equipped with a three-electrode system arrangement. The three-electrode system included a saturated calomel electrode as the reference electrode, a platinum wire as the auxiliary electrode, and a glassy carbon electrode (GCE, d = 2 mm) as the working electrode. The GCE was polished between each sample scan with an aqueous slurry of alumina powder on a microcloth pad. The electrodes were rinsed with distilled water prior to the next scan. All scans were conducted under nitrogen for oxygen displacement and at room temperature (rt, 25 ± 1 °C). All samples were prepared as close to the scan as possible (approximately 2 min each). Each sample (5 mL) contained 0.1 mM catecholic substrate and 1 μM DMSO in 0.1 M phosphate buffer at a pH of 7.4 or 6.0. […] The cyclic voltammograms for the compounds at both pH 6.0 and 7.4 are available in Figures S40–S51.

Data set [3] in a line: Determination of pKa values by spectrophotometric titration. The note with it: for pK a value: first catecholic deprotonation, determined spectroscopically from pH 3 to 12.5; for Catecholic pKa value relative to L-DOPA x 100: percentage of the value for L-DOPA.
Description: A buffer system utilizing five different buffers was prepared to cover the pH range of 3.0 to 12.50. A Thermo Scientific Orion Star A211 pH meter was used to measure and determine the pH of each buffer. The pH meter was calibrated using three- and four-point calibration with pH values of 4.00, 7.01, and 10.01 and 4.00, 7.01, 10.01, and 12.00, respectively.
The buffer systems were prepared as previously described and included: NaOAc/HOAc buffers (C = 0.1 M; I = 0.1 M) were used to cover the pH range of 3.0 to 5.50. KH2PO4/K2HPO4 buffers (C = 0.05 M; I = 0.1 M) were used to cover the pH range of 6.00 to 8.00. CHES buffers (C = 0.05 M; I = 0.1 M) were used to cover the pH range of 8.50 to 10.50. Na2HPO4/Na3PO4 buffers (C = 0.05 M; I = 0.1 M) were used to cover the pH range of 11.00 to 12.00. KCl buffers (C = 0.1 M; I = 0.1 M) were used to cover the pH range of 12.00 to 12.50.
The absorbance spectra of the compounds were determined at each pH as previously described. Briefly, a stock solution was prepared for each compound by weighing 2 mg of the compound using a high-precision analytical balance. Each compound was then dissolved in DMSO at a concentration of 10 mM. A UV-transparent 96-well microplate (Corning clear acrylic 96-well UV plate with a UV-transparent flat bottom) was loaded with 196 μL of buffer solution and 4 μL of the catechol stock in each well to get a final concentration of 200 μM. DMSO (4 μL) was added to 196 μL of the appropriate buffer to produce a blank solution for each buffer.
The 96-well plate was loaded into the microplate reader and incubated at 30 °C and shaken for 10 min before the reading. Absorbance readings were completed by using a Synergy HTX 15032517 microplate reader. Each well was read at wavelengths from 210 to 600 nm with 2-nm increments for each scan over a duration of 60 min.
The data were analyzed as previously described. Raw UV-spectra scans were exported to the Excel program. They were first processed by subtracting the reading of the blank solutions from the reading of each compound at the corresponding wavelengths. […] Finally, the spectral difference between the pH 3.0 buffer and the spectra at all other pH values was plotted. Additionally, the spectral difference between the pH 4.0 buffer and the spectra at all other higher pH values was plotted. The wavelengths for the maximum positive and negative absorbance were determined by using the graphs of the spectral difference plots, both for the pH 3.0 and pH 4.0 spectral difference plots. The absolute maximum positive and total absorbance differences at these chosen wavelengths were plotted against the pH of each buffer. The data were imported into the Origin 6.0 program, and the pK a values were determined with a nonlinear regression using eq : 1 Absorbancetotal=εHA−εA−[10^(pH−pKa)]/1+10^(pH−pKa)×[St]
εHA is the extinction coefficients of the acid form of the compound, and εA ^– is the extinction coefficient of the base form of the compound (i.e., the minima and maxima of the absorbance difference curve, respectively), and [S t] is the total compound concentration.
For data set [4], the target named is L-DOPA 2,3-dioxygenase from S. hygroscopicus jingganensis (ShjDDO) (Streptomyces hygroscopicus, UniProt H2JL11). The data set is described as follows: UV-visible steady-state assay of L-DOPA 2,3-dioxygenase (ShjDDO). The conditions noted are these: for activity / turnover as substrate: ShjDDO, aerobic reaction observed by UV–visible spectroscopy; for kSP, O2 (μM^-1 min^-1) at pH 7.5 relative to L-DOPA x 100 for ShjDDO: percentage of the value for L-DOPA. It is filed as biochemical. The procedure: (§1) Purified, reconstituted L-DOPA 2,3-dioxygenases were assessed for activity by monitoring the cleavage of catecholic substrates using UV–visible spectroscopy. 3,4-Dihydroxyhydrocinnamic acid (DHHCA, 3) was purchased from Sigma-Aldrich. 6-CyanoDHHCA (5) and 6-bromoDHHCA (4) were synthesized as described above.
(§2) Molecular oxygen (AirGas) was bubbled directly into the reaction buffer through a glass-bonded silica gas diffuser (Bubblemac Industries, Inc.) or as a gas mixture blended with air (AirGas). Solutions were bubbled with oxygen for several minutes prior to use and for the duration of the experiment. To determine the K M for oxygen (i.e., K MO2), L-DOPA 2,3-dioxygenases (0.25–4.0 μM) were reacted with a saturating concentration of the catecholic substrate DHHCA/6-X-DHHCA derivatives (2–10× the K M sufficient to achieve k cat) and various oxygen concentrations (21–100% or 270–1300 μM at 22 °C). The concentration of oxygen was varied by changing the percentage of oxygen in the blend using a galvanic oxygen sensor and oxygen monitor (AirGas) and then bubbling solutions, as described above. Molecular oxygen percentages were converted to molar concentrations using a reference temperature of 22 °C. The reaction of L-DOPA 2,3-dioxygenases with DHHCA/6-X-DHHCA derivatives as a function of oxygen concentration was followed by the appearance of the steady-state cleavage product by using UV–visible spectroscopy.
(§3) The extinction coefficients for steady-state cleavage products of DHHCA and synthetic 6-X-DHHCA derivatives were determined by reacting various concentrations of DHHCA/6-X-DHHCA derivatives at 22 °C with a 10-fold stoichiometric excess of enzyme (quantified by Fe^II–see Reconstitution) in 50 mM HEPES buffer with 154 mM NaCl at pH 7.5, bubbled with 100% oxygen to a final concentration of 780–910 μM, depending on the volume of oxygenated buffer that comprised the reaction (60–70%). Substrate solutions were prepared from authentic synthetic standards using an analytical balance, and reactions were run to completion as assessed by the appearance of the steady-state product. The λmax and extinction coefficients of DHHCA, 6-cyanoDHHCA, and 6-bromoDHHCA were determined herein as ε380 = 40 740 ± 820 M^–1cm^–1, ε385 = 33 256 ± 484 M^–1cm^–1, and ε380 = 35 282 ± 1190 M^–1cm^–1, respectively (Figure S52).
(§4) Steady-state kinetic data were obtained through a UV–visible spectroscopic assay. Initial rates were obtained from the slopes of the linear regions of the progress curves and plotted versus substrate concentration to yield a hyperbola, which was analyzed using the Michaelis–Menten expression and nonlinear least-squares fitting (NLSF) with Origin 6.0 (Microcal). Two possible derivations of the Michaelis–Menten expression were used: 1) the traditional expression y = k cat × x/(K M + x), where y is Rate/E 0 or the rate of product formation (μM/min) divided by the starting enzyme concentration (μM), x is substrate concentration (μM) and k SP (also known as k cat × K M ^–1)–that is, the second-order rate constant of enzyme and substrate–is extracted from the fitted constants; or 2) the alternative derivation that extracts k SP and k cat directly from the fit: y = (k SP × x)/((1 + k SP × x)/k cat), and where y is Rate/E 0 or the rate of product formation (μM/min) divided by the starting enzyme concentration (μM), x is substrate concentration (μM), k SP is equivalent to k cat×K M ^–1, and K M is extracted from k cat/k cat×K M ^–1.

Data set [5] addresses L-DOPA 2,3-dioxygenase from S. lincolnensis (LmbB1) (Streptomyces lincolnensis, UniProt Q54354). The data set is described as follows: UV-visible steady-state assay of L-DOPA 2,3-dioxygenase (LmbB1). It is filed as biochemical. The conditions noted are these: for activity / turnover as substrate: aerobic reaction observed by UV–visible spectroscopy; for kSP, O2 (μM^-1 min^-1) at pH 7.5 relative to L-DOPA x 100 for LmbB1: percentage of the value for L-DOPA. The method, then:
as §1, §2, §3, §4

The mark [6] stands for this setting: ShjDDO active site, ratio to DHHCA.
[7] abbreviates: LmbB1 active site, ratio to DHHCA.

Entries after “also recorded” stand apart in the source; their conditions may differ.

L-DOPA 2,3-dioxygenase from S. hygroscopicus jingganensis (ShjDDO), sequence (H2JL11 1-162): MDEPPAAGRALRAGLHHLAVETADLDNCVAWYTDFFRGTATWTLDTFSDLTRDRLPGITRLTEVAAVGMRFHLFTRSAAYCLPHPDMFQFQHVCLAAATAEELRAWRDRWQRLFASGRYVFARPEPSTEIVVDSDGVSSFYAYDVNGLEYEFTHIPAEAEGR
L-DOPA 2,3-dioxygenase from S. lincolnensis (LmbB1), sequence (Q54354 entry or part of it): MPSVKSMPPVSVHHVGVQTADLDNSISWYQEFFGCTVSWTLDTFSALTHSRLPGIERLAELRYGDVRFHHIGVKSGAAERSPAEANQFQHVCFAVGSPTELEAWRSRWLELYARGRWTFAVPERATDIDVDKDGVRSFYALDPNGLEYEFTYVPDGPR

Turning to `NCCc1cc(O)c(O)cc1[N+](=O)[O-]` [dopamine counterpart of 6-NitroDHHCA (6), 6-nitrodopamine], the “pK a value of dopamine counterpart” value in data set [1] is recorded as 6.23 ± 0.03.
Regarding `O=C(O)CCc1cc(O)c(O)cc1Br` [6-BromoDHHCA (4), 3-(2-bromo-4,5-dihydroxyphenyl) propanoic acid], in data set [2] (pH 6.0), the “(E p)a Oxidation” value is 267 mV, the “(E p)c Reduction” value worked out at 154 mV, the E1/2 is 210.5 mV and the Ipa/Ipc is given as 1.43. The same compound registered a ΔE p in data set [2] (pH 6.0) of 113 mV. Also, in data set [2] (pH 7.4), the “(E p)a Oxidation” value is 195 mV, the “(E p)c Reduction” value is 59 mV, the E1/2 worked out at 127 mV and the Ipa/Ipc turned out to be 1.21. This compound also registered a ΔE p in data set [2] (pH 7.4) of 136 mV. In data set [2], the “E1/2 (mV) at pH 7.4 relative to L-DOPA x 100” value is given as 63%. In addition, in data set [3], the pK a value came out at 8.36 ± 0.07 and the “Catecholic pKa value relative to L-DOPA x 100” value amounted to 95%. Moreover, in data set [4] (S. hygroscopicus jingganensis enzyme, pH 7.5), the “kcat at 22 °C and 100% O2 saturation” value was determined as 1.5 ± 0.1 sec^–1. In data set [4] (S. hygroscopicus jingganensis enzyme, values are kSP × 10^2), the “kSP,O2 × 10^2 at 22 °C” value stood at 15.8 ± 1.0 μM^–1 min^–1. Further, in data set [4] (S. hygroscopicus jingganensis enzyme, values are kSP × 10^2, kSP = kcat/KM), the “kSP catechol × 10^2 at 22 °C” value is 9.8 ± 1.9 μM^–1 min^–1. In data set [4] (ShjDDO active site), the “k SP,O2 compared with DHHCA” value was “equivalent to DHHCA (3) within error”. In addition, in data set [4] (setting [6]), the “K M weaker than DHHCA” value worked out at 2 fold and the “k cat faster than DHHCA” value came out at 2 fold. Besides, in data set [4], the “activity / turnover as substrate” value is reported as “measurable activity” and the “kSP, O2 (μM^-1 min^-1) at pH 7.5 relative to L-DOPA x 100 for ShjDDO” value is on record as roughly 11%. In addition, the “activity / turnover as substrate” value in data set [5] (LmbB1) is given as “measurable activity”. In data set [5] (LmbB1, ratio to DHHCA), the “K M tighter than DHHCA” value is given as 4.5 fold. For the same compound, in data set [5] (setting [7]), the “k SP,O2 slower than DHHCA” value is “more than 5 fold” and the “k cat slower than DHHCA” value is on record as “more than 10 fold”. Moreover, the “kcat at 22 °C and 100% O2 saturation” value in data set [5] (S. lincolnensis enzyme, pH 7.5) was 1.6 × 10^–1 ± 4.6 × 10 ^–3 sec^–1. Moreover, the “kSP,O2 × 10^2 at 22 °C” value in data set [5] (S. lincolnensis enzyme, values are kSP × 10^2) was determined as 3.5 ± 0.5 μM^–1 min^–1. Besides, the “kSP catechol × 10^2 at 22 °C” value in data set [5] (S. lincolnensis enzyme, values are kSP × 10^2, kSP = kcat/KM) is listed as 4.6 ± 0.5 μM^–1 min^–1. Moreover, in data set [5], the “kSP, O2 (μM^-1 min^-1) at pH 7.5 relative to L-DOPA x 100 for LmbB1” value stood at 4%.
Regarding `N[C@@H](Cc1ccc(O)c(O)c1)C(=O)O` [L-DOPA (1), L-3,4-dihydroxyphenylalanine], in data set [2] (pH 6.0), the “(E p)a Oxidation” value is given as 362 mV, the “(E p)c Reduction” value is recorded as 101 mV, the E1/2 was determined as 231.5 mV and the Ipa/Ipc is given as 5.90. In data set [2] (pH 6.0), this compound had a ΔE p of 261 mV. Besides, the “(E p)a Oxidation” value in data set [2] (pH 7.4) is 315 mV. In addition, in data set [3], the pK a value worked out at 8.81 ± 0.19 and the “Catecholic pKa value relative to L-DOPA x 100” value was 100%. The “kSP, O2 (μM^-1 min^-1) at pH 7.5 relative to L-DOPA x 100 for ShjDDO” value in data set [4] is listed as 100%. The “kSP, O2 (μM^-1 min^-1) at pH 7.5 relative to L-DOPA x 100 for LmbB1” value in data set [5] is reported as 100%.
For the compound `O=C(O)CCc1cc(O)c(O)cc1[N+](=O)[O-]` [6-NitroDHHCA (6), 3-(4,5-dihydroxy-2-nitrophenyl) propanoic acid], the “(E p)a Oxidation” value in data set [2] (pH 6.0) turned out to be 444 mV; in data set [2] (pH 7.4), 288 mV. Besides, the pK a value in data set [3] stood at 6.94 ± 0.06. Also, the “activity / turnover as substrate” value in data set [4] and in data set [5] (LmbB1) was “no turnover was detected; also recorded: did not undergo turnover” throughout.
Turning to `NCCc1cc(O)c(O)cc1Br` [Compound 6-bromoDA, 6-bromodopamine, reference compound], the “E1/2 (mV) at pH 7.4 relative to L-DOPA x 100” value in data set [2] was found to be 77%. Besides, the “Catecholic pKa value relative to L-DOPA x 100” value in data set [3] came out at 92%. In addition, the “kSP, O2 (μM^-1 min^-1) at pH 7.5 relative to L-DOPA x 100 for ShjDDO” value in data set [4] came to 9%. The “kSP, O2 (μM^-1 min^-1) at pH 7.5 relative to L-DOPA x 100 for LmbB1” value in data set [5] amounted to 27%. The “pK a value of dopamine counterpart” value in data set [1] was 8.09 ± 0.03.
